What was measured:
K. pneumoniae ST258 = test: Potentiation of additional antibiotics (COMPAN1F plates), MIC; format: cell-based, Klebsiella pneumoniae; conditions: for MIC of antibiotic in presence of peptidomimetic 1: + 1 μM peptidomimetic 1; for MIC of antibiotic in presence of peptidomimetic 15: + 1 μM peptidomimetic 15; for MIC of antibiotic in presence of peptidomimetic 26: + 1 μM peptidomimetic 26; for MIC: Klebsiella pneumoniae, read-out: MIC of antibiotic alone
Procedure: (§1) Minimal inhibitory concentrations (MICs) of peptidomimetics, antibiotics and their combinations were determined by broth microdilution according to the Clinical Laboratory Standards Institute performance standards (Clinical and Laboratory Standards Institute, [2013]). […] Since rifampicin and azithromycin mainly are used to treat infections with Gram-positive pathogens only CLSI clinical breakpoints were available for such bacteria. […] Potentiation of additional antibiotics by peptidomimetics was determined by using commercial 96-well plates containing varied concentrations of standard antibiotics (COMPAN1F; Trek Diagnostic Systems Inc.). The peptidomimetics were added immediately prior to inoculation with pathogen, and then MICs were determined as above. The MICs of peptidomimetic/antibiotic combinations were determined according to the method above, and the concentration ratios were selected based upon checkerboard results with 2:1 and 1:4 ratio of peptidomimetic with rifampicin or azithromycin, respectively. Minimal bactericidal concentrations (MBCs) were determined by using growth-curve assay plates. MIC plates were prepared as above, and then the plates were incubated at 37°C with continuous shaking. Growth was recorded at 10 min intervals as optical density (OD) at 600 nm during 24 h. At 24 h, for wells without growth, a sample was diluted 10-fold in sterile saline (0.9% sodium chloride) and plated onto MHA, following CLSI guidelines (Clinical and Laboratory Standards Institute, [1999]).

E. coli ST131 = test: as above; format: cell-based, Escherichia coli; conditions: for MIC of antibiotic in presence of peptidomimetic 26: + 0.25 μM peptidomimetic 26; for MIC of antibiotic in presence of peptidomimetic 1: + 0.5 μM peptidomimetic 1; for MIC of antibiotic in presence of peptidomimetic 15: + 0.5 μM peptidomimetic 15; for MIC: Escherichia coli, read-out: MIC of antibiotic alone
Procedure: as §1

MIC of antibiotic in presence of peptidomimetic 1 (K. pneumoniae ST258) [µg/mL]	MIC of antibiotic in presence of peptidomimetic 15 (K. pneumoniae ST258) [µg/mL]	MIC of antibiotic in presence of peptidomimetic 26 (K. pneumoniae ST258) [µg/mL]	MIC (K. pneumoniae ST258; no peptidomimetic) [µg/mL]	MIC of antibiotic in presence of peptidomimetic 26 (E. coli ST131) [µg/mL]	MIC of antibiotic in presence of peptidomimetic 1 (E. coli ST131) [µg/mL]	MIC of antibiotic in presence of peptidomimetic 15 (E. coli ST131) [µg/mL]	MIC (E. coli ST131; no peptidomimetic) [µg/mL]	MIC of antibiotic alone (K. pneumoniae ST258; no peptidomimetic) [µg/mL]	MIC of antibiotic alone (E. coli ST131; no peptidomimetic) [µg/mL]	Structure (SMILES)
32	32	16	32	8	>32	8	16			NCC[C@H](O)C(=O)N[C@@H]1C[C@H](N)[C@@H](O[C@H]2O[C@H](CN)[C@@H](O)[C@H](O)[C@H]2O)[C@H](O)[C@H]1O[C@H]1O[C@H](CO)[C@@H](O)[C@H](N)[C@H]1O [Amikacin]
>16	>16	>16	> 16	>16	>16	>16	> 16			CC1(C)S[C@@H]2[C@H](NC(=O)[C@H](N)c3ccccc3)C(=O)N2[C@H]1C(=O)O [Ampicillin]
>16	>16	>16	> 16	>16	>16	>16	> 16			Cc1nnc(SCC2=C(C(=O)O)N3C(=O)[C@@H](NC(=O)Cn4cnnn4)[C@H]3SC2)s1 [Cefazolin]
>8	>8	>8		>8	>8	>8		>8	>8	CO/N=C(/C(=O)N[C@@H]1C(=O)N2C(C(=O)O)=C([C@@H]3CCCO3)CS[C@H]12)c1csc(N)n1 [Cefovecin]
>16	>16	>16	> 16		>16	4	8			CO[C@@]1(NC(=O)Cc2cccs2)C(=O)N2C(C(=O)O)=C(COC(N)=O)CS[C@@H]21 [Cefoxitin]
>16	>16	>16	> 16	>16	>16	>16	> 16			COCC1=C(C(=O)O)N2C(=O)[C@@H](NC(=O)/C(=N\OC)c3csc(N)n3)[C@H]2SC1 [Cefpodoxime]
>4	>4	>4	> 4		>4	>4	> 4			CO/N=C(\C(=O)N[C@@H]1C(=O)N2C(C(=O)O)=C(CSC(=O)c3ccco3)CS[C@H]12)c1csc(N)n1 [Ceftiofur]
>16	>16	>16	> 16	≤4	≤4	≤4	≤ 4			O=C(N[C@H](CO)[C@H](O)c1ccc([N+](=O)[O-])cc1)C(Cl)Cl [Chloramphenicol]
≤2	≤2	≤2	4	≤2	≤2	≤2	≤ 2			C[C@H]1c2cccc(O)c2C(=O)C2=C(O)[C@]3(O)C(=O)C(C(N)=O)=C(O)[C@@H](N(C)C)[C@@H]3[C@@H](O)[C@@H]21 [Doxycycline]

Source: paper PMC6615261, “Repurposing Azithromycin and Rifampicin Against Gram-Negative Pathogens by Combination With Peptidomimetics” (Frontiers in Cellular and Infection Microbiology, 2019)
